Experimental data published in PubChem BioAssay AID179 (DTP/NCI, 2004).
Values joined by “and” are separate entries in the source; they are usually repeats but may differ in a detail not shown here. Equal entries are not always repeated. Active and inactive are the calls of the source.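 The calls were made as follows: active = compounds giving half or more protection of infected cells from virus-caused growth loss, again on retest; inactive = the rest.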

Test system: CEM cells HIV-1 protection, formazan growth assay
Assay: NCI AIDS Antiviral Assay
Details: for IC50: measured here: growth of uninfected CEM cells
In short: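 Soluble formazan readout of cell growth; CEM cells ± HIV-1; 5 drug concs. ≥50% protection → retest; ≥50% again = moderately active; reproducible 100% = confirmed active.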

Structure (SMILES) | outcome | EC50 | IC50
O=C1C2=C(C(c3ccccc3)=C1c1ccccc1)c1ccccc1C1(c3ccccc3)C2=C(O)C(c2ccccc2)=C1c1ccccc1 (stereo unspecified) | inactive |  | 
Clc1ccc(Cl)c2[s+]snc12 |  | > 14.5 µM | > 14.5 µM
CNC(=O)CNC(=O)CCC(=O)N(C)C |  | > 200 µM | > 200 µM
COC(=O)C1=C(C)N(NC(=O)Nc2ccccc2)C2(N)N(NC(=O)Nc3ccccc3)C(C)=C(C(=O)OC)C12C(=O)OC (stereo unspecified) |  | > 31.6 µM | > 31.6 µM
CCOC(=O)C(CC(CO)(C(C)=O)C(=O)OCC)C(C)=O (stereo unspecified) |  | > 200 µM | 22.4 µM
COc1ccccc1NC(=S)N/N=C(/C)c1ccccn1 |  | > 0.2 µM | 0.0339 µM
N#Cc1c[nH]c(=O)[nH]c1=O |  | > 200 µM | > 200 µM
Nc1ncnc2c1ncn2C1OC(C(O)CO)C(O)C1O (stereo unspecified) |  | > 200 µM | > 200 µM
CCOc1ccc(NC(=O)C(=O)CC(=O)C2=C(C)Nc3ccccc3S2)cc1 |  | > 64.6 µM | > 64.6 µM
COC(=O)[C@@H]1C[C@H]([Se]c2ccccc2)CN1C(=O)OCc1ccccc1 | inactive |  | 
O=C(NS(=O)(=O)Nc1ccccc1)OC(c1ccccc1)c1ccccc1 |  | > 200 µM | 70.8 µM
Cn1c(=O)c2nc(NCC3CCCCC3)sc2n(C)c1=O |  | > 107 µM | 102 µM
CCOC(=O)C1C(c2ccc(OC)cc2)c2c([nH][nH]c2=O)CC1(O)OCC (stereo unspecified) | inactive |  | 
O/N=C1/C2CC3CC1(c1ccccc1)CC(/C3=N/O)/C2=N\O (stereo unspecified) |  | > 200 µM | > 200 µM
CCCCCC1OC1C/C=C\CCCCCCCC(=O)OCC(O)COC(=O)CCCCCCC/C=C\CC1OC1CCCCC (stereo unspecified) |  | > 200 µM | > 200 µM
O=C(Nc1ccc(Cl)c(Cl)c1)n1ncc2ccc([N+](=O)[O-])cc21 |  | > 200 µM | 170 µM
COc1ccc(/C=C/C(=O)c2c(OC)cc(OC)c(OC)c2O)cc1 | inactive |  | 
O=c1[nH]c2nc3ccccc3c(=O)n2/c1=C/c1ccc(O)cc1 |  | > 200 µM | 52.5 µM
C/C(=N\NC(=S)N1CCN(c2ccccn2)CC1)c1cccc2cccnc12 |  | > 45.7 µM | 0.0417 µM
O=c1[nH]nc(Cc2ccccc2)n1/N=C/c1cccnc1 |  | 56.2 µM | > 200 µM
NC(N)=NC(N)=Nc1ccc(Sc2ccc(N=C(N)N=C(N)N)cc2)cc1 |  | > 200 µM | 

Structure (SMILES) | outcome | EC50 | IC50
CC1(C)OCC(C)(C)C(O)C1=O (stereo unspecified) |  | > 1450 µM | 977 µM
CN1c2ccccc2N(C)P1(=S)c1ccccc1 |  | > 200 µM | 26.9 µM
O=C1/C(=C/c2ccc(Br)s2)NC(=S)N1CN1CCCCC1 |  | > 200 µM | 38 µM
COC(=O)[C@]1(C)CCC[C@]2(C)C3CC4OOC3(C=C4C(C)(C)O)CCC21 (stereo partly specified) |  | > 251 µM | 38.9 µM
C(=C\c1ccccc1)/COc1ccccc1C(N1CCOCC1)n1nc2ccccc2n1 (stereo unspecified) |  | > 200 µM | 6.76 µM
O=C(O)c1ccc([As](=O)(O)O)c([N+](=O)[O-])c1 |  | > 200 µM | > 200 µM
N#CC(C#N)=C(C#N)C#N |  | > 200 µM | > 200 µM
CCN1C(=O)/C(=C\c2coc3ccccc3c2=O)SC1=S |  | > 0.813 µM | > 0.813 µM
C[n+]1c(-c2ccc(/C=N/NC(=O)C(=O)N/N=C/c3ccc(-c4cn5ccccc5[n+]4C)cc3)cc2)cn2ccccc21 |  | 56.2 µM and > 200 µM | 74.1 µM and > 200 µM
[N-]=[N+]=Nc1cc(=O)[nH]nc1-c1ccccc1 |  | > 200 µM | > 200 µM
CC1CC[C@]2(C(=O)O)CCC3(COC(=O)/C=C\c4ccc(O)cc4)C(=CCC4[C@@]5(C)CC[C@H](O)C(C)(C)C5CC[C@]43C)[C@@H]2[C@H]1C (stereo partly specified) |  | > 41.7 µM | 11 µM
COC(=O)C12C3C4C1C1C2C3C41C(=O)OC(C)(C)C (stereo unspecified) |  | > 257 µM | > 257 µM
O=C(O)c1ccc2c(c1)CC1(C2)Cc2ccccc2C1=O (stereo unspecified) |  | > 200 µM | > 200 µM
O=C(NC(C(F)(F)F)(C(F)(F)F)P(=O)(c1ccccc1)c1ccccc1)C(C(F)(F)F)C(F)(F)F |  | > 200 µM | 11.7 µM
OC(C#CCN1CCCC1)(c1ccccc1)c1ccc(Cl)cc1.[C-]#[O+].[C-]#[O+].[C-]#[O+].[C-]#[O+].[C-]#[O+].[C-]#[O+].[Co].[Co] (stereo unspecified) |  | > 200 µM | 5.62 µM
[N-]=[N+]=Nc1cccc(-c2n[nH]c(Cl)cc2=O)c1 |  | > 200 µM | > 200 µM
C[C@H](CCCN1CCCCC1)[C@H]1CC[C@H]2[C@@H]3CC[C@@H]4C[C@H](O)CC[C@]4(C)[C@H]3CC[C@]12C |  | > 50.1 µM | 1.82 µM
C(=Nc1ccc(SSc2ccc(N=Cc3ccc4c(c3)OCO4)cc2)cc1)c1ccc2c(c1)OCO2 |  | > 200 µM | 23.4 µM
CC(C)COC(=O)N1N=NC2C3CC(=O)C(O3)C21 (stereo unspecified) |  | > 708 µM | 123 µM
CCC(=O)NC(Nc1cccc(F)c1C)(C(F)(F)F)C(F)(F)F |  | > 200 µM | > 200 µM
COC1/C=C/OC2(C)Oc3c(C)c(O)c4c(O)c(c(C=Nc5cccc(C)c5)c(O)c4c3C2=O)NC(=O)C(C)=C/C=C/C(C)C(O)C(C)C(O)C(C)C(OC(C)=O)C1C (stereo unspecified) |  | > 174 µM | 28.8 µM

Structure (SMILES) | outcome | EC50 | IC50
O=C(O)CN1CCN2CCOCCN(CC1)CCN(CC(=O)O)CC2 |  | > 200 µM | > 200 µM
CC1CC(=O)C2CC(CO)=CCCC2C1(C)CC/C(=C/CO)CO (stereo unspecified) | inactive |  | 
CC(C)(C)OC(=O)N1CCc2[nH][nH]c(=O)c2C1 |  | > 200 µM | > 200 µM
O=C(O)c1n[nH]nc1Cl |  | > 200 µM | > 200 µM
O=S(=O)(O)CS(=O)(=O)O |  | > 200 µM | > 200 µM
CN(C)CCNC(=O)c1cc([N+](=O)[O-])cn1C |  | > 200 µM | > 200 µM
NC(N)=Nc1ccc(/C=C2\C=Cc3ccccc32)cc1 |  | > 27.5 µM | 10.5 µM
COC(=O)C1=C(C(=O)OC)N(c2ccncc2)C(c2ccco2)=CC1c1ccccc1[N+](=O)[O-] (stereo unspecified) |  | > 74.1 µM | 7.24 µM
O=[N+]([O-])c1ccc2c(c1)C(N1CCN(CCO)CC1)Cc1ccc(F)cc1S2 (stereo unspecified) |  | > 200 µM | 22.4 µM
CC12C/C(=C\c3ccccc3)C(=O)C3C1CCCC32 | inactive |  | 
CCc1n[nH]c(=O)n1NC(=O)CCCC(=O)O |  | > 200 µM | > 200 µM
[C-]#[O+].[C-]#[O+].[C-]#[O+].[Cr].c1ccc([PH+](CC[As](c2ccccc2)c2ccccc2)CC[As](c2ccccc2)c2ccccc2)cc1 | inactive |  | 
CCC1(CC)C(=O)N(C(=O)c2ccccc2)N(C(=O)c2ccc(Cl)cc2)C1=O |  | > 200 µM | 50.1 µM
CC1(O)C(O)C(O)C1(O)CO (stereo unspecified) (tested in a mixture with another compound) |  | > 200 µM | > 200 µM
Cc1ccc(Sc2ccccc2N)cc1 |  | > 178 µM | 51.3 µM
CC1C(=O)C2C1CS2(=O)=O (stereo unspecified) |  | > 1260 µM | 1120 µM
c1ccc(N=C2C(=Nc3ccccc3)N(C3CCCCC3)C(=NC3CCCCC3)N2c2ccccc2)cc1 |  | > 200 µM | > 200 µM
COC(=O)/C=C/C(=O)/C=C/COC(=O)c1ccccc1 |  | > 95.5 µM | 61.7 µM
O=C1N=NC(=O)N1c1cc(C(F)(F)F)cc(C(F)(F)F)c1 |  | > 200 µM | 2.88 µM
CCCCC(C(=O)C(=O)Nc1ccc(C)cc1C)C(=O)C(C)C (stereo unspecified) |  | > 794 µM | > 794 µM
